Source: PubChem BioAssay (NCI)
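Step 1: Grow cells in 96-well plates. Step 2: Expose to compound for 48 hours at 5 concentrations. Step 3: Interpolate endpoints linearly; if unreached, use highest concentration. TGI: concentration producing complete growth inhibition.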

Assays:
Experiment in all cases: NCI tumour cell line growth inhibition, 48 h
A498 renal = tested on: A498 renal
BT-549 breast = tested on: BT-549 breast
MALME-3M melanoma = tested on: MALME-3M melanoma
MDA-N = tested on: MDA-N
MOLT-4 leukemia = tested on: MOLT-4 leukemia
NCI-H522 lung = tested on: NCI-H522 lung
OVCAR-4 ovarian = tested on: OVCAR-4 ovarian
OVCAR-5 ovarian = tested on: OVCAR-5 ovarian
OVCAR-8 ovarian = tested on: OVCAR-8 ovarian
RPMI-8226 leukemia = tested on: RPMI-8226 leukemia
RXF 393 renal = tested on: RXF 393 renal
SK-OV-3 ovarian = tested on: SK-OV-3 ovarian
U251 CNS = tested on: U251 CNS
UACC-62 melanoma = tested on: UACC-62 melanoma
HOP-62 NSCLC = tested on: HOP-62 NSCLC
SF-268 CNS = tested on: SF-268 CNS
T-47D breast = tested on: T-47D breast

| SMILES | TGI (A498 renal) | TGI (BT-549 breast) | TGI (MALME-3M melanoma) | TGI (MDA-N) | TGI (MOLT-4 leukemia) | TGI (NCI-H522 lung) | TGI (OVCAR-4 ovarian) | TGI (OVCAR-5 ovarian) | TGI (OVCAR-8 ovarian) | TGI (RPMI-8226 leukemia) | TGI (RXF 393 renal) | TGI (SK-OV-3 ovarian) | TGI (U251 CNS) | TGI (UACC-62 melanoma) | TGI (HOP-62 NSCLC) | TGI (SF-268 CNS) | TGI (T-47D breast) |
| --- | --- | --- | --- | --- | --- | --- | --- | --- | --- | --- | --- | --- | --- | --- | --- | --- | --- |
| C=CCN1C(=O)CC1N(CC=C)S(=O)(=O)c1ccc(C)cc1 (stereo not given) | > 100 µM | > 100 µM | > 100 µM | > 100 µM | > 100 µM | > 100 µM | > 100 µM | > 100 µM | > 100 µM | > 100 µM | > 100 µM | > 100 µM | > 100 µM | > 100 µM | – | – | – |
| Cc1c(/C=N/NC(=S)Nc2cccc(Cl)c2)c(=O)n(-c2ccccc2)n1C | 19.9 µM | 75.1 µM | – | – | > 100 µM | – | 40 µM | – | 35.6 µM | > 100 µM | 29.5 µM | 38.2 µM | 44.6 µM | > 100 µM | 26.9 µM | 36.7 µM | > 100 µM |
| CC12CCC([C@H](N3CCOCC3)/C1=N\OCCN1CCCC1)C2(C)C (stereo not given in full) | > 100 µM | – | > 100 µM | – | > 100 µM | > 100 µM | > 100 µM | > 100 µM | > 100 µM | > 100 µM | > 100 µM | > 100 µM | > 100 µM | > 100 µM | > 100 µM | > 100 µM | – |
| COc1ccc(N(C)CN(C)c2nc(N(C)C)nc(N(C)C)n2)cc1 | > 100 µM | – | > 100 µM | – | > 100 µM | > 100 µM | > 100 µM | > 100 µM | > 100 µM | > 100 µM | – | > 100 µM | > 100 µM | > 100 µM | > 100 µM | > 100 µM | – |
| O=C1NCN(c2ccccc2)C12CCN(CCc1ccc3[nH]c(=S)[nH]c3c1)CC2 | > 100 µM | > 100 µM | 30.8 µM | – | > 100 µM | > 100 µM | > 100 µM | > 100 µM | > 100 µM | 59.3 µM | 36.5 µM | > 100 µM | 98.4 µM | > 100 µM | > 100 µM | > 100 µM | 56.8 µM |
| CCCCCCCC(=O)OC[C@@H](C[As](=O)(O)O)OC(=O)CCCCCCC | 24 µM | – | 28.5 µM | – | 18.6 µM | 4.83 µM | 28.9 µM | – | 37.5 µM | 46.2 µM | 19.3 µM | 28.1 µM | 19.9 µM | 23.4 µM | 32.9 µM | 20.3 µM | – |
| CC1(C)CC(=O)/C(=C/C2CCNC2=S)C(=O)N1 (stereo not given) | > 100 µM | – | > 100 µM | > 100 µM | > 100 µM | > 100 µM | > 100 µM | > 100 µM | > 100 µM | > 100 µM | – | > 100 µM | > 100 µM | > 100 µM | > 100 µM | > 100 µM | > 100 µM |
| C/C(=N/NC(=O)c1ccncc1)c1ccc(NC(=O)C(=O)Nn2c(=S)[nH]c3ccccc3c2=O)cc1 | > 100 µM | > 100 µM | > 100 µM | – | > 100 µM | > 100 µM | > 100 µM | > 100 µM | > 100 µM | > 100 µM | > 100 µM | > 100 µM | > 100 µM | > 100 µM | > 100 µM | > 100 µM | > 100 µM |
| CCC[C@H](O)[C@@H](CNc1cc(NC(C)=O)nc(NC(C)=O)n1)N(Cc1ccccc1)Cc1ccccc1 | > 100 µM | 35.9 µM | > 100 µM | > 100 µM | > 100 µM | 27.2 µM | > 100 µM | > 100 µM | 35.1 µM | > 100 µM | – | 63.4 µM | > 100 µM | 57 µM | 36.2 µM | – | – |
| Cc1nc(Cl)c2sc(=S)n(-c3ccc(F)cc3)c2n1 | 7.23 µM | 12.1 µM | 23.9 µM | 3.95 µM | – | 10.9 µM | 31.4 µM | 24.1 µM | 33.8 µM | > 100 µM | 21.1 µM | 25.9 µM | 17.7 µM | 24 µM | 9.73 µM | 5.29 µM | – |
| C=C(C)C#CC(O)(C(=O)OC1CCN(C)CC1)C(C)C (stereo not given) | – | – | > 100 µM | > 100 µM | > 100 µM | > 100 µM | – | > 100 µM | > 100 µM | > 100 µM | > 100 µM | > 100 µM | > 100 µM | > 100 µM | > 100 µM | > 100 µM | > 100 µM |
| N=C(N)C1CN(CCc2cnc[nH]2)C(=O)NC1=O (stereo not given) | > 100 µM | > 100 µM | > 100 µM | > 100 µM | > 100 µM | > 100 µM | > 100 µM | > 100 µM | > 100 µM | > 100 µM | > 100 µM | > 100 µM | > 100 µM | > 100 µM | > 100 µM | > 100 µM | – |
| COC1(C(C)(C)C)C=C(C(C)(C)C)P(=O)(O)O1 (stereo not given) | > 100 µM | – | > 100 µM | > 100 µM | – | > 100 µM | > 100 µM | > 100 µM | > 100 µM | > 100 µM | – | > 100 µM | > 100 µM | > 100 µM | > 100 µM | > 100 µM | > 100 µM |
| CCN(CC)c1ccc2c(c1)OC(=O)C(c1nnc(-c3ccc([N+](=O)[O-])cc3)o1)C2 (stereo not given) | > 100 µM | > 100 µM | > 100 µM | > 100 µM | > 100 µM | > 100 µM | > 100 µM | > 100 µM | > 100 µM | > 100 µM | > 100 µM | > 100 µM | > 100 µM | > 100 µM | > 100 µM | > 100 µM | – |
| CCC(CC)C(=O)OC[n+]1ccc(-c2c(COC(=O)NC(C)C)c(COC(=O)NC(C)C)c3n2CCC3)cc1 | > 100 µM | > 100 µM | – | > 100 µM | > 100 µM | > 100 µM | > 100 µM | – | > 100 µM | > 100 µM | > 100 µM | > 100 µM | > 100 µM | – | > 100 µM | – | – |
| O=C1CSC(/C(=C/c2ccccc2)c2nc3ccccc3[nH]2)=N1 | > 100 µM | – | > 100 µM | – | > 100 µM | > 100 µM | > 100 µM | > 100 µM | > 100 µM | – | – | 59.5 µM | 74.4 µM | > 100 µM | > 100 µM | > 100 µM | – |
| CCN(CC)CCNc1ccc2ncn3c4c(OC)ccc(OC)c4c(=O)c1c23 | > 100 µM | – | 41.8 µM | 25.4 µM | 30.4 µM | 44.2 µM | – | – | 68.5 µM | – | 10.3 µM | 44.9 µM | 35.6 µM | 57.5 µM | > 100 µM | 17.2 µM | > 100 µM |
| NC(=O)c1cc(-c2ccc(-n3ccnc3)cc2)n[nH]c1=O | > 100 µM | > 100 µM | > 100 µM | > 100 µM | > 100 µM | > 100 µM | > 100 µM | > 100 µM | > 100 µM | > 100 µM | > 100 µM | > 100 µM | > 100 µM | > 100 µM | > 100 µM | > 100 µM | – |
| NCCC(=O)N[C@H](Cc1cc(O)c(O)c(SCC(NC(=O)CC[C@H](N)C(=O)O)C(=O)NCC(=O)O)c1)C(=O)O (stereo not given in full) | > 50 µM | > 50 µM | > 50 µM | > 50 µM | – | > 50 µM | > 50 µM | > 50 µM | – | > 50 µM | > 50 µM | > 50 µM | > 50 µM | > 50 µM | > 50 µM | > 50 µM | – |
| CC1(c2cccc3c2C2(O)C=CC4(CCC32)OCCO4)OCCO1 (stereo not given) | > 100 µM | – | > 100 µM | – | > 100 µM | > 100 µM | > 100 µM | > 100 µM | > 100 µM | > 100 µM | > 100 µM | > 100 µM | > 100 µM | > 100 µM | > 100 µM | > 100 µM | – |
| O=C(O)c1c[nH]c2c(=O)[nH]cnc12 | – | – | > 100 µM | – | > 100 µM | > 100 µM | – | > 100 µM | > 100 µM | > 100 µM | > 100 µM | > 100 µM | – | > 100 µM | > 100 µM | > 100 µM | – |
| O=c1[nH]c(=O)n(C2CC(O)C(CO)O2)cc1NN=NCCc1ccccc1 (stereo not given) | – | – | > 100 µM | > 100 µM | > 100 µM | > 100 µM | > 100 µM | > 100 µM | > 100 µM | > 100 µM | > 100 µM | > 100 µM | > 100 µM | > 100 µM | > 100 µM | > 100 µM | > 100 µM |
| Clc1cc(OCc2nn3c(Cc4ccccc4)nnc3s2)ccc1OCc1nn2c(Cc3ccccc3)nnc2s1 | 79.6 µM | > 100 µM | > 100 µM | – | > 100 µM | > 100 µM | 59.3 µM | > 100 µM | 62.9 µM | > 100 µM | > 100 µM | > 100 µM | 51.5 µM | > 100 µM | > 100 µM | > 100 µM | 79.4 µM |
| CCCCC1Cc2ccccc2-c2n1c1ccccc1[n+]2C (stereo not given) | > 100 µM | – | – | 64.5 µM | 81.8 µM | 27.9 µM | > 100 µM | > 100 µM | > 100 µM | 14 µM | > 100 µM | > 100 µM | > 100 µM | – | > 100 µM | > 100 µM | 7.3 µM |
